18 compounds from patent US20220177477A1 (Central China Normal University, priority 2019, published 2022) can be followed below.

For data set [1], the target named is T1, TRKB (Homo sapiens, UniProt Q16620).
T1 construct: purchased Carna Biosciences 08-187
Briefly: In vitro biochemical HTRF KinEASE kinase inhibition, TRKB. Particulars: wild-type kinase, final ATP 2.56 μmol/L. The procedure: The material and the method are as follows: wild-type kinases such as TRKA, TRKB and TRKC, and mutant kinases such as TRKA-G595R, TRKA-G667C, TRKA-F589L, TRKC-G623R and TRKC-G696A, and are derived from Carna Biosciences 08-186, 08-187, 08-197; HTRF KinEASE TKkit (Cisbio 62TKO PEC); 384 well plates (Greiner corporation); ATP (Life technologies PV 3227), MgCl2 (sigma); PHERAstar FS Multifunctional microplate reader (BMG Co.); low speed centrifuge (StaiteXiangyi corporation); incubator (Binder company).
Preparing a compound working solution: the dispensed compounds were removed from the freezer prior to testing and diluted to 100× concentration with pure DMSO; then the compound was diluted to the desired concentration of 4× with deionized water;
Preparation of 1.33× enzyme buffer (enzyme buffer): 5× enzyme buffer (from HTRF kit) was diluted to 1.33× with deionized water and the corresponding ingredients were added at a final concentration of 1.33×: 1.33 mmol/L Dithiothreitol (DTT), 1.33 mmol/L MnCl2, 6.65 mmol/L MgCl2 and 39.9 nmol/L SEB;
Preparation of a kinase working solution: TRKA, TRKB and TRKC were diluted with 1.33× enzyme buffer to the required concentrations of 2× of 0.404 ng/μL, 0.304 ng/μL and 0.236 ng/μL, respectively;
Preparing a substrate working solution: a mixture of TK Substrate Blr diluted to the desired final concentration of 4× (from HTRF kit) and ATP (10 mM) with 1.33× enzyme buffer; the final ATP concentrations for TRKA, TRKB, and TRKC were: 3.727 μmol/L, 2.56 μmol/L and 2.526 μmol/L. The TK Substrate-biotin (from HTRF KinEASE TKkit) final concentrations were all: 0.2 μmol/L.
Preparing a detection working solution: 16.67 μmol/L of Streptavidin-XL665 (Streptavidin-XL 665) were diluted to the desired final concentration of 4× with HTRF test buffer and then mixed with an equal volume of Antibody-europium Cryptate (Antibody-Cryptate) (both from HTRF kits).
An enzyme reaction step: add 4 μL of kinase working solution to each well of a low volume 384 microwell plate along with 4 μL of 1.33× enzyme buffer as a Negative control (Negative); add 2 μl of compound working solution to the wells, while adding 2 μl of […] aqueous solution as a zero compound concentration control (i.e., Positive control, Positive); incubating at 25° C. for 5 min; add 2 μL of substrate working solution to the wells to start the enzymatic reaction, shake the reaction for 30 min at 37° C.
HTRF reagent detection step: adding […] to the hole to terminate the reaction; reacting for 1 h at 25° C.;
Reading of HTRF signal: the PHERAstar FS reading is adopted to detect signals, and the corresponding setting of the instrument is as follows:
For the raw data read out per well, the ratio=665 nm/620 nm;
Calculation of inhibition rate:
Calculation of IC50 values: with the logarithm of the compound concentration as abscissa and the inhibition as ordinate, a non-linear curve was fitted in GraphPad Prism 5: log (inhibitor) vs. response—Variable slope, and calculating the concentration of the compound to be detected, namely IC50, when the enzyme activity inhibition rate is 50%.

Data set [2] in a line: Drug metabolism study in rats, oral administration. To be noted: rat.
Data set [3] in a line: Drug metabolism study in rats, intravenous administration. To be noted: rat, plasma, iv, 1 mg/kg.
Data set [4] has as its target T2, TRKA (Homo sapiens, UniProt P04629).
T2 construct: purchased Carna Biosciences 08-186
The experiment in a line: In vitro biochemical HTRF KinEASE kinase inhibition, TRKA. Particulars: wild-type kinase, final ATP 3.727 μmol/L; read-out: TRKA IC50.

Data set [5] concerns the target T3, TRKC (Homo sapiens, UniProt Q16288).
T3 construct: purchased Carna Biosciences 08-197
Briefly: In vitro biochemical HTRF KinEASE kinase inhibition, TRKC. Particulars: wild-type kinase, final ATP 2.526 μmol/L. Background: TR-FRET usually uses a lanthanide donor and a delayed reading to cut background.

Each structure is given as a SMILES string. pIC50: −log10 of the molar value.

T2 sequence (P04629 33-796): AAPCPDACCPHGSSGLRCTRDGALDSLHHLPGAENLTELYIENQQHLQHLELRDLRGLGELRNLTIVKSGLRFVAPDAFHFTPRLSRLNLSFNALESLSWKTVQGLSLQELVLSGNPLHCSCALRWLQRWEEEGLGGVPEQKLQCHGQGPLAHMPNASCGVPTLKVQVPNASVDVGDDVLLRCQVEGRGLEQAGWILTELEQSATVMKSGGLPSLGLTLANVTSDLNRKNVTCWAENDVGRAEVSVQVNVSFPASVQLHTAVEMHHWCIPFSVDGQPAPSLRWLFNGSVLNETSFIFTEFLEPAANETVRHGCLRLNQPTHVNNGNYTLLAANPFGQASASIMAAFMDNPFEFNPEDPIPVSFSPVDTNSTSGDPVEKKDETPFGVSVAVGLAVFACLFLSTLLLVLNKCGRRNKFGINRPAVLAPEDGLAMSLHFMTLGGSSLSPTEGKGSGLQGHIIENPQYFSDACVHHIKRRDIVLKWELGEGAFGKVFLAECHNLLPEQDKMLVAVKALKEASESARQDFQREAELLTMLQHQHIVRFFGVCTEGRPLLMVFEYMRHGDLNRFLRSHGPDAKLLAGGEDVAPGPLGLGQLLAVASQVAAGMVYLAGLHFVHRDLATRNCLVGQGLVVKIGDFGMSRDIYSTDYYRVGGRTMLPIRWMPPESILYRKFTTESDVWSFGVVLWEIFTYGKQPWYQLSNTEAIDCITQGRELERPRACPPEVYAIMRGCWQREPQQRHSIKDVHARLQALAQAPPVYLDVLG
T1 sequence (Q16620 32-822): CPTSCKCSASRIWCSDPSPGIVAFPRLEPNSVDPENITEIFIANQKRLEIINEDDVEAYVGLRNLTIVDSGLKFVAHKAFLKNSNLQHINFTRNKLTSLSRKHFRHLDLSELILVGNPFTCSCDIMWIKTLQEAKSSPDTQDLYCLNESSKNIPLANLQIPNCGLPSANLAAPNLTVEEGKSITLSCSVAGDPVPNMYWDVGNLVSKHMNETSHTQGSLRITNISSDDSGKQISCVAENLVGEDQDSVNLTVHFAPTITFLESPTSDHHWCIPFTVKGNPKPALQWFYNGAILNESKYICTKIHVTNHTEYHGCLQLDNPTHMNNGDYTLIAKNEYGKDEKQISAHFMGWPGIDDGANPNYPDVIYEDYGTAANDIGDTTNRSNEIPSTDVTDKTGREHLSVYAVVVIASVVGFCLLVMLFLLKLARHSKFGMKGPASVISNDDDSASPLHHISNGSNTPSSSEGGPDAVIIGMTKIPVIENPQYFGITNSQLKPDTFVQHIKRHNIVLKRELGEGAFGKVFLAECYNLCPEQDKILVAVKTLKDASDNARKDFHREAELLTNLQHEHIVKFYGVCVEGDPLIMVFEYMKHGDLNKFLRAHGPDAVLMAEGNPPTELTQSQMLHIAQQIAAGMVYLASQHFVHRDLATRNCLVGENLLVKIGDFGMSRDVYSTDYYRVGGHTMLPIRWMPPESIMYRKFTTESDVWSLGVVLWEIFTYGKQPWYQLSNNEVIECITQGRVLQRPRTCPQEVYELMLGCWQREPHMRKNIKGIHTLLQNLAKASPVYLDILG
T3 sequence (Q16288 32-825 isoform Q16288-3 limits assumed): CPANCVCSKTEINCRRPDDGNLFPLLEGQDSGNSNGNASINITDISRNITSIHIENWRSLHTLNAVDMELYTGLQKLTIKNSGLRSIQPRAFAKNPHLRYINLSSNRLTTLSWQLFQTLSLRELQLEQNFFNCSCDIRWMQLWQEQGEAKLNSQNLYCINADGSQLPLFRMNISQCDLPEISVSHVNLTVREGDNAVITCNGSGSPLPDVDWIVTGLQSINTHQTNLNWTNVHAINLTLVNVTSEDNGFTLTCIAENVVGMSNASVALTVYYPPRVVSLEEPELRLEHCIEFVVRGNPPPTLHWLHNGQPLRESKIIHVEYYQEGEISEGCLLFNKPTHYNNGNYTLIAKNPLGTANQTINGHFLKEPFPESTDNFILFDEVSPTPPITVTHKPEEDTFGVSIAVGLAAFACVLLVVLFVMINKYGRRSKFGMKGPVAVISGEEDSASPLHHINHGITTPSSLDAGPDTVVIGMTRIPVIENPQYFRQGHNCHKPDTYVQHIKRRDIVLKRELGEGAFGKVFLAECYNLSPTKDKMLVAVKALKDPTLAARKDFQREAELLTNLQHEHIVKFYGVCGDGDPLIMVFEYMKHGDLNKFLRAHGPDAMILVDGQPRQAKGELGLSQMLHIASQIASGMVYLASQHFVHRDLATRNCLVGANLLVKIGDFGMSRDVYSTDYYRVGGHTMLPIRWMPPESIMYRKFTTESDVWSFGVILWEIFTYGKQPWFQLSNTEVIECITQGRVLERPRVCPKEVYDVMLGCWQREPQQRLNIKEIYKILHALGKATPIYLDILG

The term pIC50 denotes −log10 of the IC50, conventionally taken in molar units. Usually AUC(0-t) stands for exposure summed from dosing to a finite time, without extrapolation to infinity. A higher AUC(0-t) goes with high exposure. As usually defined, the Cmax is the peak of the concentration-time curve. The MRT last is the average time that molecules of a dose stay in the body. Broadly, the Tmax is the time at which the peak concentration occurs. In general, bioavailability refers to dose-corrected exposure relative to a reference, in per cent. One may read the half-life as the time needed for the level to fall by half in the phase considered. What is called Vd is the apparent volume that relates the amount in the body to the concentration in plasma or blood. One may read the clearance as the rate of elimination divided by the concentration. A low value points to inefficient removal. Regarding `C[C@@H](Nc1ccn2ncc(-c3cnn(C)c3)c2n1)c1cc(F)ccc1OCC(F)F` [Compound 2, (R)-N-(1-(2-(2,2-difluoroethoxy)-5-fluorophenyl)ethyl)-3-(1-methyl-1H-pyrazol-4-yl) pyrazolo [1,5-a] pyrimidin-5-amine], in data set [1], the pIC50 is 8.55. In data set [2] (oral 5 mg/kg), this compound displayed a CL of 168.7 mL/min/kg and a Vz of 37.61 L/kg. Besides, in data set [2] (plasma, po, 5 mg/kg), the AUC(0-t) was 533 ng·h/mL, the peak level (Cmax) was 150 ng/mL, the MRT last came to 2.62 h and the Tmax was 0.67 h. In data set [2] (plasma, po, 5 mg/kg), this compound showed a bioavailability of 30.2% and a half-life of 2.85 h. In data set [3], this compound returned an AUC(0-t) of 353 ng·h/mL, a maximum concentration (Cmax) of 298 ng/mL, an MRT last of 1.49 h and a Vd of 6.8 L/kg. In addition, in data set [3], the clearance is 46 mL/min/kg and the half-life was 1.71 h.
Consider `CC(Nc1ccn2ncc(-c3cnn(C(F)F)c3)c2n1)c1cc(F)ccc1OCC(F)F` (stereo not shown) [Compound 3, N-(1-(2-(2,2-difluoroethoxy)-5-fluorophenyl)ethyl)-3-(1-(difluoromethyl)-1H-pyrazol-4-yl) pyrazolo [1,5-a] pyrimidin-5-amine], for which the pIC50 was 8.24 in data set [4], 8.32 in data set [1] and 8.15 in data set [5].
In the case of `CC(Nc1ccn2ncc(-c3cnn(C4CC4)c3)c2n1)c1cc(F)ccc1OCC(F)F` (stereo not shown) [Compound 4, 3-(1-cyclopropyl-1H-pyrazol-4-yl)-N-(1-(2-(2,2-difluoroethoxy)-5-fluorophenyl)ethyl) pyrazolo [1,5-a] pyrimidin-5-amine], the pIC50 in data set [4] is 7.91; in data set [1] it was 7.80; in data set [5] it was 7.60.
Take `C[C@@H](Nc1ccn2ncc(-c3cnn(CC#N)c3)c2n1)c1cc(F)ccc1OCC(F)F` [Compound 7]: the pIC50 in data set [4] is 8.62; in data set [1] it was 8.89; in data set [5], 8.62.
Take `CC(Nc1ccn2ncc(-c3cnn(C4CCCC4O)c3)c2n1)c1cc(F)ccc1OCC(F)F` (stereo not shown) [Compound 8, 2-(4-(5-((1-(2-(2,2-difluoroethoxy)-5-fluorophenyl)ethyl)amino)pyrazolo [1,5-a]pyrimidin-3-yl)-1H-pyrazol-1-yl) cyclopentan-1-ol]: the results for the pIC50 in data set [4], in data set [1] and in data set [5] were 8.27, 8.24 and 8.01, respectively.
Take `C[C@@H](Nc1ccn2ncc(-c3cnn(C4CCCCO4)c3)c2n1)c1cc(F)ccc1OCC(F)F` (stereo partly drawn) [Compound 10, N-((R)-1-(2-(2,2-difluoroethoxy)-5-fluorophenyl)ethyl)-3-(1-(tetrahydro-2H-pyran-2-yl)-1H-pyrazol-4-yl) pyrazolo [1,5-a] pyrimidin-5-amine]: the pIC50 is 8.42 in data set [4], 8.57 in data set [1] and 8.26 in data set [5].
Taken in the same sequence, the figures for `CC(=O)n1cc(-c2cnn3ccc(N[C@H](C)c4cc(F)ccc4OCC(F)F)nc23)cn1` [Compound 12, (R)-1-(4-(5-((1-(2-(2,2-difluoroethoxy)-5-fluorophenyl)ethyl)amino)pyrazolo [1,5-a]pyrimidin-3-yl)-1H-pyrazol-1-yl) ethanone] were 8.48, 8.46 and 8.33.
Take `CC(Nc1ccn2ncc(-c3cn[nH]c3)c2n1)c1cc(F)cc(F)c1OCC(F)F` (stereo not shown) [Compound 14, N-(1-(2-(2,2-difluoroethoxy)-3,5-difluorophenyl)ethyl)-3-(1H-pyrazol-4-yl) pyrazolo [1,5-a] pyrimidin-5-amine]: the pIC50 is 7.95 in data set [4], 8.38 in data set [1] and 8.17 in data set [5].
On to `CC(Nc1ccn2ncc(-c3cn[nH]c3)c2n1)c1ccccc1OCC(F)F` (stereo not shown) [Compound 16, N-(1-(2-(2,2-difluoroethoxy)phenyl)ethyl)-3-(1H-pyrazol-4-yl) pyrazolo [1,5-a] pyrimidin-5-amine], for which the pIC50 in data set [4] is 8.07; in data set [1], 8.07; in data set [5], 7.91.
On to `CC(Nc1ccn2ncc(-c3cnn(C4CCCC4O)c3)c2n1)c1cc(F)ccc1O` (stereo not shown) [Compound a2-3, 4-fluoro-2-(1-((3-(1-(2-hydroxycyclopentyl)-1H-pyrazol-4-yl)pyrazolo [1,5-a]pyrimidin-5-yl)amino)ethyl) phenol], for which the pIC50 is 7.98 in data set [4], 8.29 in data set [1] and 8.07 in data set [5].
`C[C@@H](Nc1ccn2ncc(-c3cnn(C)c3)c2n1)c1cc(F)ccc1OCCF` [Compound a10-17, (R)-N-(1-(5-fluoro-2-(2-fluoroethoxy)phenyl)ethyl)-3-(1-methyl-1H-pyrazol-4-yl) pyrazolo [1,5-a] pyrimidin-5-amine]: the values for the pIC50 in data set [4], in data set [1] and in data set [5] were 8.64, 8.82 and 7.82, respectively.
As to `CC(Nc1ccn2ncc(-c3cnn(C)c3)c2n1)c1cc(F)ccc1OCC1CC1` (stereo not shown) [Compound a26-38, N-(1-(2-(cyclopropylmethoxy)-5-fluorophenyl)ethyl)-3-(1-methyl-1H-pyrazol-4-yl) pyrazolo [1,5-a] pyrimidin-5-amine], the pIC50 in data set [4] was 7.94; in data set [1] it was 8.17; in data set [5], 8.00.
Turning to `CC(Nc1ccn2ncc(-c3cnn(C)c3)c2n1)c1cc(F)ccc1OC1CCOC1` (stereo not shown) [Compound a27-41, N-(1-(5-fluoro-2-((tetrahydrofuran-3-yl)oxy)phenyl)ethyl)-3-(1-methyl-1H-pyrazol-4-yl) pyrazolo [1,5-a] pyrimidin-5-amine], the pIC50 in data set [4] is 8.11; in data set [1], 8.24; in data set [5] it was 8.15.
For the compound `CC(Nc1ccn2ncc(-c3cn[nH]c3)c2n1)c1cc(F)ccc1OCF` (stereo not shown) [Compound b3-6, N-(1-(5-fluoro-2-(fluoromethoxy)phenyl)ethyl)-3-(1H-pyrazol-4-yl) pyrazolo [1,5-a] pyrimidin-5-amine], the pIC50 in data set [4] is 7.74; in data set [1], 7.89; in data set [5], 7.81.
The matching figures for `CC(Nc1ccn2ncc(-c3cn[nH]c3)c2n1)c1cc(F)ccc1OC(F)F` (stereo not shown) [Compound b4-7, N-(1-(2-(difluoromethoxy)-5-fluorophenyl)ethyl)-3-(1H-pyrazol-4-yl) pyrazolo [1,5-a] pyrimidin-5-amine]: 8.47, 8.51 and 8.42.
With `CCOc1ccc(F)cc1C(C)Nc1ccn2ncc(-c3cn[nH]c3)c2n1` (stereo not shown) [Compound b5-11, N-(1-(2-ethoxy-5-fluorophenyl)ethyl)-3-(1H-pyrazol-4-yl) pyrazolo [1,5-a]pyrimidin-5-amine], the pIC50 was 8.08 in data set [4], 8.37 in data set [1] and 8.08 in data set [5].
Take `CCCOc1ccc(F)cc1C(C)Nc1ccn2ncc(-c3cn[nH]c3)c2n1` (stereo not shown) [Compound b9-33, N-(1-(5-fluoro-2-propoxyphenyl)ethyl)-3-(1H-pyrazol-4-yl) pyrazolo [1,5-a] pyrimidin-5-amine]: the pIC50 in data set [4] was 8.22; in data set [1] it was 8.26; in data set [5] it was 7.91.
In the case of `CC(Nc1ccn2ncc(-c3cn[nH]c3)c2n1)c1cc(F)ccc1OCCN1CCOCC1` (stereo not shown) [Compound b16-44, N-(1-(5-fluoro-2-(2-morpholinoethoxy)phenyl)ethyl)-3-(1H-pyrazol-4-yl) pyrazolo [1,5-a] pyrimidin-5-amine], in data set [4], the pIC50 was 6.44.
